Converted amounts (≈) assume the structure as drawn. Bounds are passed on as bounds.

The nature of assay [1]: Inhibition of Escherichia coli BL21(DE3) beta-lactamase TEM36.
A short description of assay [2]: Inhibition of Escherichia coli BL21(DE3) beta-lactamase TEM1.
The nature of assay [3]: Inhibition of Escherichia coli BL21(DE3) beta-lactamase TEM28.
Assay [4] in a line: Inhibition of Escherichia coli BL21(DE3) beta-lactamase TEM29.
Assay [5] in a line: Inhibition of Escherichia coli BL21(DE3) beta-lactamase TEM152.
Assay [6] is described as follows: Inhibition of Escherichia coli BL21(DE3) beta-lactamase TEM151.
Assay [7] deals with Escherichia coli. Nature of the assay: microbe, parasite or virus in culture. Type of assay: functional. Particulars: DH5alpha.
Description: Antimicrobial activity against recombinant Escherichia coli DH5-alpha CL1295 isolate expressing pBK-TEM-151 and CMT by disk diffusion assay
Assay [8] concerns Escherichia coli. The experiment in a line: microbe, parasite or virus in culture. Particulars: DH5alpha. Format: functional. This is another data set of the same source.
Description: Antimicrobial activity against recombinant Escherichia coli DH5-alpha CL1179 isolate expressing pBK-TEM-152 and CMT by disk diffusion assay
Assay [9] relates to Escherichia coli. Nature of the assay: Antimicrobial activity against recombinant Escherichia coli DH5-alpha isolate expressing pBK-TEM-1 and TEM1 by disk diffusion assay. Type of assay: functional. Particulars: DH5alpha. (In general: A growth-free zone around the sample is the usual read-out of agar diffusion tests.)
Assay [10] relates to Escherichia coli. Nature of the assay: Activity of Escherichia coli BL21(DE3) beta-lactamase TEM151.
In assay [11] the test system is Escherichia coli. Nature of the assay: Activity of Escherichia coli BL21(DE3) beta-lactamase TEM29.
Assay [12] concerns Escherichia coli. Nature of the assay: Activity of Escherichia coli BL21(DE3) beta-lactamase TEM36.
Assay [13] deals with Escherichia coli. The experiment in a line: Antimicrobial activity against Escherichia coli DH5-alpha TC1295 isolate expressing TEM-1 by […]. Type of assay: functional. Particulars: DH5alpha.
Assay [14] relates to Escherichia coli. Nature of the assay: Antimicrobial activity against Escherichia coli DH5-alpha CF1295 isolate expressing CMT and TEM1 by […]. Format: functional. Particulars: DH5alpha.
Assay [15] concerns Escherichia coli. The experiment in a line: Antimicrobial activity against Escherichia coli DH5-alpha TC1179 isolate expressing TEM-1 by […]. Type of assay: functional. Particulars: DH5alpha.
In assay [16] the test system is Escherichia coli. Nature of the assay: Activity of Escherichia coli BL21(DE3) beta-lactamase TEM152.
Assay [17] relates to Escherichia coli. The experiment in a line: Antimicrobial activity against Escherichia coli DH5-alpha CF1179 isolate expressing CMT and TEM1 by […]. Type of assay: functional. Particulars: DH5alpha.
For assay [18], the system named is Escherichia coli. Nature of the assay: Antimicrobial activity against recombinant Escherichia coli DH5-alpha isolate expressing pBK-TEM-29 and ESBL by disk diffusion assay. Type of assay: functional. Particulars: DH5alpha.
Assay [19] deals with Escherichia coli. Nature of the assay: Antimicrobial activity against recombinant Escherichia coli DH5-alpha isolate expressing pBK-TEM-36 and IRT by disk diffusion assay. Format: functional. Particulars: DH5alpha.
Assay [20] has as its system Escherichia coli. The experiment in a line: Activity of Escherichia coli BL21(DE3) beta-lactamase TEM1.
In assay [21] the test system is Escherichia coli. Nature of the assay: Antimicrobial activity against recombinant Escherichia coli DH5-alpha isolate expressing pBK-TEM-28 and ESBL by disk diffusion assay. Format: functional. Particulars: DH5alpha.
For assay [22], the system named is Escherichia coli. The experiment in a line: Activity of Escherichia coli BL21(DE3) beta-lactamase TEM28.
Assay [23] has as its system Escherichia coli. The experiment in a line: Antimicrobial activity against Escherichia coli DH5-alpha isolate expressing pBK-CMV by […]. Particulars: DH5alpha. Format: functional.

A word on the IC50: it is the concentration that gives 50% inhibition. Low readings indicate higher potency, high ones lower potency. In the case of `O=C(O)[C@H]1/C(=C/CO)O[C@@H]2CC(=O)N21` [CLAVULANIC ACID], the IC50 is 80 nM in assay [1]; 25 nM in assay [2]; 20 nM in assay [3]; 20500 nM in assay [4]; 1000 nM in [5]; 170 nM in [6].

Regarding `C[C@]1(Cn2ccnn2)[C@H](C(=O)O)N2C(=O)C[C@H]2S1(=O)=O` [TAZOBACTAM], the concentration for half-maximal inhibition (IC50) in assay [1] is 130 nM; in [2], 30 nM; in assay [3], 20 nM; in assay [4] it was 2400 nM; in [5], 400 nM; in assay [6] it was 270 nM.

As usually defined, the Km is the substrate concentration at which the rate is half of its maximum. One may read the kcat as the number of substrate molecules converted per active site and unit of time at saturation. A word on the kcat/Km: it is the turnover number divided by the Michaelis constant. For `CC1(C)S[C@@H]2[C@H](NC(=O)[C@H](C(=O)O)c3ccsc3)C(=O)N2[C@H]1C(=O)O` [TICARCILLIN], the MIC against Escherichia coli [7], with Escherichia coli [8], with Escherichia coli [9], against Escherichia coli [13], with Escherichia coli [14] and against Escherichia coli [15] was more than 2050 µg/mL in each case. The MIC against Escherichia coli [17] was more than 2050 µg/mL; with Escherichia coli [18], more than 2050 µg/mL; in the assay with Escherichia coli [19], more than 2050 µg/mL; in the assay with Escherichia coli [21], more than 2050 µg/mL; against Escherichia coli [23], 2 µg/mL (≈ 0.0052 mM). Also, the Km was 21 µM in the assay with Escherichia coli [10]; 14 µM in the assay with Escherichia coli [11]; 130 µM in the assay on Escherichia coli [12]; 36 µM with Escherichia coli [16]; 36 µM in the assay on Escherichia coli [20]; 9 µM in the assay with Escherichia coli [22]. Further, the kcat in the assay on Escherichia coli [10] was 60 s⁻¹; in the assay with Escherichia coli [11], 42 s⁻¹; in the assay with Escherichia coli [12], 176 s⁻¹; in the assay on Escherichia coli [16], 51 s⁻¹; in the assay on Escherichia coli [20], 135 s⁻¹; in the assay on Escherichia coli [22], 38 s⁻¹. Besides, the kcat/Km in the assay with Escherichia coli [10] amounted to 2.9e+06 M⁻¹ s⁻¹; in the assay with Escherichia coli [11], 3e+06 M⁻¹ s⁻¹; in the assay with Escherichia coli [12], 1.3e+06 M⁻¹ s⁻¹; with Escherichia coli [16], 1.4e+06 M⁻¹ s⁻¹; in the assay with Escherichia coli [20], 3.8e+06 M⁻¹ s⁻¹; with Escherichia coli [22] it was 4.2e+06 M⁻¹ s⁻¹.

The values are drawn from ChEMBL document CHEMBL1146197, “Evolution of TEM-type enzymes: biochemical and genetic characterization of two new complex mutant TEM enzymes, TEM-151 and TEM-152, from a single patient” (Antimicrob Agents Chemother, 2007).
